Assay results published in article PMC7699649 (Communications Biology, 2020).
Non-standard residues stand in square brackets, D forms with d. Residues, ends and D or L forms follow the SMILES beside them.

Tests used:
[1] = test system: human red blood cells; assay: Haemolysis assay; type: cell-based; details: human red blood cells in PBS, 1 h 37 °C, OD550, relative to 0.1% Triton-X-100
Experimental: Haemolysis was tested by incubating titrations of AMPs in PBS with freshly collected human red blood cells for 1 h at 37 °C. Control wells were treated with 0.1% Triton-X-100 to ensure complete lysis, or PBS-only to represent no lysis. Samples were spun down to remove non-lysed cells and the OD550 of the supernatant was measured using a Clariostar plate reader. The percentage of haemolysis was calculated as % haemolysis = (AP − AB)/(AC − AB) × 100, where AP is the absorbance value for a known peptide concentration, AC is the absorbance of the 0.1% Triton-X-100 control, AB is the absorbance of the PBS control. Data presented are averages and standard error from three biological replicate experiments.

[2] = test system: HEK293; type: cell-based, human; details: 24 h
Experimental: (§1) HeLa and HEK293 cell lines were purchased from ECACC and cultured in Eagle’s Minimum Essential Media containing glutamine, supplemented with 10% FBS and 1X non-essential amino acids. A549 and Calu-3 cell lines were purchased from ATCC. […] Cytotoxicity was measured by incubating starter cultures of cells for 24 h in a 96 well plate, gently removing the supernatant and replacing it with dilutions of peptides and controls, incubating for a further 24 h and then staining of the cells with the second-generation tetrazolium dye, XTT.

[3] = test system: Calu-3; type: cell-based; details: 24 h
Experimental: as §1

[4] = test system: A549; type: cell-based; details: 24 h
Experimental: as §1

[5] = test system: HeLa; type: cell-based; details: 24 h
Experimental: as §1

[6] = test system: EMRSA-15; assay: 1H HR-MAS NMR metabolomics of bacterial pellets; type: cell-based, Staphylococcus aureus; details: EMRSA-15 in MHB, sub-inhibitory challenge v unchallenged; fold change, 1H HR-MAS NMR of pellets
Experimental: S. aureus EMRSA-15 and P. aeruginosa RP73 were streaked on Mueller Hinton agar plates and RPMI (supplemented with 5% FBS) agar plates and incubated at 37 °C overnight or until single colonies formed. […] Cultures were incubated overnight at 37 °C without shaking and pelleted by centrifugation at 4 °C. The supernatant was removed and filtered separately for spent media analysis, the pellet was briefly washed three times with phosphate buffered saline (PBS). The pellets were frozen in liquid nitrogen and lyophilised overnight in an Alpha 1–2 LD plus freeze dryer (Martin Christ, Germany) and stored at −20 °C until required. Samples were transferred into HR-MAS inserts for use in 4 mm Bruker MAS rotor and resuspended in 30 μl of D2O containing 3-(Trimethylsilyl)propionic-2,2,3,3-D4 acid sodium salt (TMSP-2,2,3,3-D4). The removed supernatant was filtered through 0.2 μm filters and pH adjusted to within 0.3 pH units within the same sample set. The samples were supplemented with 10% D2O containing TMSP-2,2,3,3-D4 and loaded into 5.0 mm NMR tubes.
NMR spectra were collected at 600 MHz for ^1H on a Bruker Avance II spectrometer (Bruker Biospin, Coventry, UK) with a 4 mm HR-MAS probe at 310 K while spinning at 5 kHz. ^1H NMR spectra were acquired using a Carr-Purcell Meiboom-Gill pre-saturation (cpmgpr1d) pulse sequence with a spectrum width of 16.0 ppm and 9615 data points using 64 transients. Free induction decay was multiplied by an exponential function with 0.293 Hz line broadening. 2D ^1H–^1H correlation spectroscopy (COSY) and ^1H–^13C Heteronuclear Single Quantum Correlation (HSQC) experiments were performed on representative datasets using standard Bruker settings.
The spectra were Fourier transformed automatically using standard Bruker commands and manually phased and baseline corrected in Bruker TopSpin 4.0 (Bruker Biospin, Coventry, UK). Spectral pre-processing, cross-validation and multivariate analysis were carried out using the in-house programme developed by Dr Louic Vermeer and MVAPACK, an opensource Octave library for NMR metabolomic data processing and analysis. Pre-processing modifies NMR spectra and reduces the variances and influences which are not of interest and may interfere with data analysis, for example, residual water peak or noise and the TSP reference peak. Initially a principle component analysis was carried out to identify clustering spectra and potential outliers in the data, due to e.g. poor baseline. Data were then subject to probabilistic quotient normalisation before binning and alignment. Orthogonal Projections to Latent Structures Discriminant Analysis analyses were conducted to establish the quality of binary comparisons of the metabolomic data (Supplementary Table 4). […] The Mann–Whitney U test was used to compare means and associated p values were false discovery rate adjusted using the Benjamini-Hochberg method (α = 0.05). Box plots were generated using changes in normalised intensity for each metabolite and significant differences between challenges and controls were determined using a one-way ANOVA. Volcano plots and box plots were generated using in-house software developed for Jupyter Notepad using Python 3.7.0. Metabolites were assigned using the databanks: Chenomx NMR suite software (Chenomx Inc., Canada), Human Metabolome Database, BMRB, E. coli Metabolome Database and AOCS lipid library; and a comparison of chemical shifts to the literature, which was confirmed using 2D NMR spectra. Annotated spectra can be found in the supplementary materials (Supplementary Fig. 15). Metaboanalyst and KEGG were later used to identify key pathways that may be affected by these metabolites.

[7] = test system: MCP-1; assay: Murine EMRSA-15 lung infection model: BAL cytokine ELISA; type: in vivo, C57Bl6J mice; details: vancomycin or D-pleurocidin-KR i.v., 48 h
[8] = test system: TNFα; assay: as above; type: in vivo, C57Bl6J mice; details: vancomycin or D-pleurocidin-KR i.v., 48 h
[9] = test system: IL-6; assay: as above; type: in vivo, C57Bl6J mice; details: 600 mg/kg vancomycin or D-pleurocidin-KR (also lowest dose 0.15 mg/kg) i.v., 48 h
[10] = Murine EMRSA-15 lung infection model: body weight; type: in vivo, C57Bl6J mice; details: cumulative 15 or 1.5 mg/kg/48 h D-pleurocidin-KR; 600 mg/kg vancomycin; i.v.
[11] = test system: KC; assay: Murine EMRSA-15 lung infection model: BAL cytokine ELISA; type: in vivo, C57Bl6J mice; details: 600 mg/kg vancomycin or the two higher D-pleurocidin-KR doses (15, 1.5 mg/kg) i.v., 48 h
[12] = test system: BAL cells; assay: Murine EMRSA-15 lung infection model: BAL total and differential cell count; type: in vivo, C57Bl6J mice; details: 48 h
Experimental: Using the recently developed method[65], an overnight culture of EMRSA-15 was prepared in tryptic soy broth (TSB). EMRSA-15 was cultured in TSB overnight at 37 °C, adjusted to a starting OD600 of 0.025, and grown for additional 4 h for agar beads preparation. EMRSA-15 was embedded into agar beads by mixing the overnight culture with molten tryptic soy agar, which was then spun into warmed mineral oil. The preparation was cooled and centrifuged at 2700 × g, the remaining oil was eliminated, and the beads were washed in sterile PBS. The CFU content of the beads slurry was subsequently quantified on TSA plates and the beads slurry then diluted to 2 × 10^7 CFU/ml in sterile PBS to deliver a final dose of 1 × 10^6 CFU/mouse. Animal work was performed in accordance with the Animals (Scientific Procedures) Act of 1986 (United Kingdom) and 2012 revisions with local ethical approval of King’s College London. On day 0, male C57Bl6J mice (8–10 weeks, Charles River) were anaesthetised under Isoflurane and 50 µl inoculum of EMRSA-15 embedded in agar beads (10^6 CFU/mouse) was instilled directly into the respiratory tract via oropharyngeal dosing (o.a.). Sham control mice were inoculated with sterile PBS agar beads. […] Body weight was measured daily, and animals monitored at regular intervals for signs of pain and distress. After 48 h of pulmonary infection, animals were terminally euthanized using 25% urethane via intra-peritoneal injection. CFUs were quantified in lung homogenates. Lung homogenates were then centrifuged at 14000 rpm for 30 min at 4 °C and the supernatants were stored at −80 °C for future analysis. For BAL fluid collection and analysis (total and differential cell count), a 22-gauge catheter was inserted into the trachea and BAL was recovered by instillation of 0.5 ml of sterile PBS three times and total cells counts were performed by adding Turks stain in a 1:1 ratio. BAL fluid was then centrifuged, and supernatants were stored at −20 °C. Total levels of TNFα, IL-6, KC and MCP-1 were quantified from BAL fluid collected from all animals and measured by ELISA according to the manufacturer protocol (R&D Systems UK). Concentrations of all mediators were then normalised to total protein content of BAL fluid quantified via bicinchoninic acid total protein assays performed to manufacturers protocols (Thermofisher Scientific). […] Statistical analysis was by one-way ANOVA with Dunnett’s multiple comparisons test.

[13] = test system: S. aureus USA300; details: 200 mg/kg vancomycin i.p.; cited from earlier work

Structure (SMILES)	Toxicity HEK293 (EC50 / IC50) [2]	Toxicity Calu-3 (EC50 / IC50) [3]	Toxicity A549 (EC50 / IC50) [4]	Toxicity HeLa (EC50 / IC50) [5]	fc 2-aminobutyrate [6]	fc Acetate [6]	fc Acetyl-Phosphocholine (1) [6]	fc Acetyl-Phosphocholine (2) [6]	fc Adenosine [6]	fc Alanine [6]	fc Aspartate [6]	fc Betaine [6]	fc Choline [6]	fc Citrulline [6]	fc Glutamate [6]	fc Glycerol (lipid headgroup) (1) [6]	fc Glycerol (lipid headgroup) (2) [6]	fc Glycerol (lipid headgroup) (3) [6]	fc Isoleucine [6]	fc Lactate [6]	other results
CC(C)C[C@@H](NC(=O)[C@@H](Cc1ccc(O)cc1)NC(=O)[C@@H](Cc1c[nH]cn1)NC(=O)[C@H](NC(=O)[C@@H](CC(C)C)NC(=O)[C@@H](C)NC(=O)[C@@H](C)NC(=O)[C@@H](CCCCN)NC(=O)CNC(=O)[C@@H](C)NC(=O)[C@@H](Cc1c[nH]cn1)NC(=O)[C@@H](CCCCN)NC(=O)CNC(=O)[C@@H](C)NC(=O)[C@@H](Cc1c[nH]cn1)NC(=O)[C@@H](C)NC(=O)[C@@H](C)NC(=O)[C@@H](CCCCN)NC(=O)[C@@H](CCCCN)NC(=O)[C@@H](Cc1ccccc1)NC(=O)[C@@H](Cc1ccccc1)NC(=O)[C@@H](CO)NC(=O)CNC(=O)[C@@H](Cc1c[nH]c2ccccc12)NC(=O)CN)[C@H](C)O)C(N)=O [D-pleurocidin-VA] (H-G[dW]G[dS][dF][dF][dK][dK][dA][dA][dH][dA]G[dK][dH][dA]G[dK][dA][dA][dL][dT][dH][dY][dL]-NH2; N-terminus assumed)	(217.3 ± 46.5) µg/ml	(>250) µg/ml	(>250) µg/ml	(198.2 ± 10.2) µg/ml	0.991	1.149	0.9923	1.003	1.125	0.9478	0.8483	0.9779	1.051	0.9363	0.896	0.9028	1.031	0.9777	1.148	1.293	haemolysis at the highest concentration tested 400 µg/ml [1]: Neither pleurocidin-VA nor D-pleurocidin-VA induce detectable haemolysis; fc Leucine [6]: 1.172; fc Lipid -CH=CH- [6]: 1.134; fc Lipid-CH₃ [6]: 1.116; fc Lysine [6]: 1.027; fc N-acetyl-x (1) [6]: 0.8941; fc N-acetyl-x (2) [6]: 1.036; fc N-acetyl-x (3) [6]: 0.9489; fc Proline [6]: 1.056; fc Succinate [6]: 0.8785; fc Unassigned 1.47ppm [6]: 0.8868; fc Unassigned 3.4802ppm [6]: 0.9293; fc Unassigned 8.55ppm [6]: 0.9285; fc Uracil [6]: 1.738; fc Valine [6]: 1.029; fc ᴅ-alanine (LTA) [6]: 1.157
CC(C)C[C@@H](NC(=O)[C@@H](Cc1ccc(O)cc1)NC(=O)[C@@H](Cc1c[nH]cn1)NC(=O)[C@H](NC(=O)[C@@H](CC(C)C)NC(=O)[C@@H](C)NC(=O)[C@@H](C)NC(=O)[C@@H](CCCCN)NC(=O)CNC(=O)[C@H](NC(=O)[C@@H](Cc1c[nH]cn1)NC(=O)[C@@H](CCCCN)NC(=O)CNC(=O)[C@H](NC(=O)[C@@H](Cc1c[nH]cn1)NC(=O)[C@@H](C)NC(=O)[C@@H](C)NC(=O)[C@@H](CCCCN)NC(=O)[C@@H](CCCCN)NC(=O)[C@@H](Cc1ccccc1)NC(=O)[C@@H](Cc1ccccc1)NC(=O)[C@@H](CO)NC(=O)CNC(=O)[C@@H](Cc1c[nH]c2ccccc12)NC(=O)CN)C(C)C)C(C)C)[C@H](C)O)C(N)=O [D-pleurocidin] (H-G[dW]G[dS][dF][dF][dK][dK][dA][dA][dH][dV]G[dK][dH][dV]G[dK][dA][dA][dL][dT][dH][dY][dL]-NH2; N-terminus assumed)	(61.4 ± 3.9) µg/ml	(41.9 ± 1.8) µg/ml	(79.3 ± 7.2) µg/ml	(47.1 ± 2.1) µg/ml	1.089	7.742	0.8504	0.9675	0.737	0.9988	0.9699	1.128	0.8079	0.7893	0.9017	1.108	0.9648	0.9439	0.8635	0.8326	concentration at which 10% haemolysis is achieved ([1]; three biological replicates): 240 µg/mL; fc Leucine [6]: 0.8297; fc Lipid -CH=CH- [6]: 1.03; fc Lipid-CH₃ [6]: 0.9623; fc Lysine [6]: 0.8706; fc N-acetyl-x (1) [6]: 1.103; fc N-acetyl-x (2) [6]: 1.06; fc N-acetyl-x (3) [6]: 0.8909; fc Proline [6]: 0.991; fc Succinate [6]: 0.6241; fc Unassigned 1.47ppm [6]: 0.9642; fc Unassigned 3.4802ppm [6]: 1.011; fc Unassigned 8.55ppm [6]: 5.383; fc Uracil [6]: 0.4342; fc Valine [6]: 0.8108; fc ᴅ-alanine (LTA) [6]: 1.199
CN[C@H](CC(C)C)C(=O)N[C@H]1C(=O)N[C@@H](CC(N)=O)C(=O)N[C@H]2C(=O)N[C@H]3C(=O)N[C@H](C(=O)N[C@H](C(=O)O)c4cc(O)cc(O)c4-c4cc3ccc4O)[C@H](O)c3ccc(c(Cl)c3)Oc3cc2cc(c3O[C@@H]2O[C@H](CO)[C@@H](O)[C@H](O)[C@H]2O[C@H]2C[C@](C)(N)[C@H](O)[C@H](C)O2)Oc2ccc(cc2Cl)[C@H]1O [vancomycin, reference compound]	–	–	–	–	–	–	–	–	–	–	–	–	–	–	–	–	–	–	–	–	levels of MCP-1 in BAL [7]: No effects; levels of TNFα in BAL [8]: No effects; IL-6 in BAL [9]: reduced; weight loss over the 48-h infection period [10]: mitigates this weight loss; KC levels in BAL [11]: fall to that of the uninfected group; neutrophil recruitment (BAL) ([12]; 600 mg/kg vancomycin or D-pleurocidin-KR (also lowest dose 0.15 mg/kg) i.v.): reduced; macrophage numbers in BAL ([12]; vancomycin or D-pleurocidin-KR i.v.): No effects; reduction in S. aureus USA300 CFU [13]: comparable reduction
